In US8940754B2, “10′-fluorinated Vinca alkaloids provide enhanced biological activity against MDR cancer cells” (priority 2010, dated 2015):
Like-named read-outs stand apart in the source and are kept apart here.

Columns and labels:
[1] = system: L1210, HCT116, HCT116/VM46; assay: cytotoxic activity in the cell-based assays, overall comparison with the parent compound; details: for enhancement of cytotoxic activity by C-10′ fluorine substitution: vs natural product without fluorine; for fold more potent than the natural products themselves: vs vinblastine / vincristine, Table 2C
[2] = system: HCT116/VM46; assay: cells; type: cell-based, human; details: for IC50: Homo sapiens
[3] = system: L1210; assay: cells; type: cell-based, mouse; details: Mus musculus
[4] = system: HCT116; assay: cells; type: cell-based, human; details: Homo sapiens
[5] = HCT-116/VM46, Table 2B, C10′-substituted vinblastines, single evaluations, read-out: IC50 (nM) HCT116/VM46
[6] = L1210, Table 2B, C10′-substituted vinblastines, single evaluations, read-out: IC50 (nM) L1210
[7] = HCT-116, Table 2B, C10′-substituted vinblastines, single evaluations, read-out: IC50 (nM) HCT116

Compound	enhancement of cytotoxic activity by C-10′ fluorine substitution [1]	IC50 ([2]; HCT-116/VM46, read-out: IC50 (nM) HCT116/VM46) [nM]	IC50 ([3]; L1210, read-out: IC50 (nM) L1210) [nM]	IC50 ([4]; HCT-116, read-out: IC50 (nM) HCT116) [nM]	fold more potent than the natural products themselves [1]	IC50 [2, 5] [nM]	increased activity against vinblastine resistant cell line (HCT116/VM46) ([2]; vs vinblastine)	IC50 [3, 6] [nM]	IC50 [4, 7] [nM]	IC50 ([2]; HCT-116/VM46, Table 2C, side-by-side, multiple examinations with several independent samples, read-out: IC50 (nM) HCT116/VM46) [nM]	IC50 ([3]; L1210, Table 2C, side-by-side, multiple examinations with several independent samples, read-out: IC50 (nM) L1210) [nM]	IC50 ([4]; HCT-116, Table 2C, side-by-side, multiple examinations with several independent samples, read-out: IC50 (nM) HCT116) [nM]
CCC1=C[C@@H]2CN(CCc3c([nH]c4ccc(F)cc34)[C@@](C(=O)OC)(c3cc4c(cc3OC)N(C)C3C(O)(C(=O)OC)[C@H](OC(C)=O)[C@]5(CC)C=CCN6CC[C@]43[C@@H]65)C2)C1 (some centres unmarked) [Compound 19a, 10′-fluoroanhydrovinblastine]	about 8 fold	290	30	50	–	–	–	–	–	–	–	–
CC[C@]1(O)C[C@@H]2CN(CCc3c([nH]c4ccc(F)cc34)[C@@](C(=O)OC)(c3cc4c(cc3OC)N(C)C3C(O)(C(=O)OC)[C@H](OC(C)=O)[C@]5(CC)C=CCN6CC[C@]43[C@@H]65)C2)C1 (some centres unmarked) [Compound 19b, 10′-fluorovinblastine]	about 8 fold	–	–	–	about 8 fold	80	about 8 fold	0.7	0.9	–	–	–
CC[C@]1(O)C[C@@H]2CN(CCc3c([nH]c4ccc(OC)cc34)[C@@](C(=O)OC)(c3cc4c(cc3OC)N(C)C3C(O)(C(=O)OC)[C@H](OC(C)=O)[C@]5(CC)C=CCN6CC[C@]43[C@@H]65)C2)C1 (some centres unmarked) [Compound 22b, 10′-methoxyvinblastine]	–	–	–	–	–	> 10000	–	670	720	–	–	–
CC[C@]1(O)C[C@@H]2CN(CCc3c([nH]c4ccc(F)cc34)[C@@](C(=O)OC)(c3cc4c(cc3OC)N(C=O)C3C(O)(C(=O)OC)[C@H](OC(C)=O)[C@]5(CC)C=CCN6CC[C@]43[C@@H]65)C2)C1 (some centres unmarked) [Compound 28, 10′-fluorovincristine]	–	–	–	–	about 8 fold	–	–	–	–	90	0.7	1
